The values that follow come from patent publication US12264173B2 (GILEAD SCIENCES, INC., priority 2020, dated 2025).

Where two headings read alike, the source gives them in different places.

What all share (assay type): cell-based
One experiment deals with RSV strain A2. The experiment is described as follows: microbe, parasite or virus in culture. The conditions noted are these: Table 3, HEp-2 cells, RSV A2, 4 days, read-out: RSV HEp-2 EC50. Summed up: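 Cytopathic-effect protection assay: HEp-2 cells (50,000/mL) infected with pre-titered RSV A2 onto 3-fold serial compound dilutions, incubated 4 days at 37° C. Cell viability read by CellTiter-Glo luminescence; percent inhibition derived against 0% and 100% virus-inhibition controls.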

In another experiment the test system is RSV A2. The experiment is described as follows: RSV NHBE EC50 (RSV A2 antiviral assay in NHBE cells). The following applies: Table 3, NHBE cells, RSV A2, 4 days, read-out: RSV NHBE EC50. A digest of the protocol:
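Antiviral protection in primary bronchial epithelial cells: RSV A2 (1×10^4.5 tissue culture infectious doses/mL) added right after compound, in 3-fold dilutions at 0.05% DMSO, to 7,500 attached cells per well. Cytopathic loss quantified as CellTiter-Glo luminescence after 4-day incubation at 37 °C.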

Another experiment relates to HRV16. The experiment is described as follows: HRV16 HeLa EC50 (cytopathic effect in H1-HeLa cells). Summed up:
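Read-out is luminescent cell viability (CellTiter-Glo) after 96 h of infection at 33 °C, scaled between uninfected and infected-untreated wells. Before infection with titrated virus, compounds went onto H1-HeLa cells as triplicate 3-fold dilution series.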
For orientation: Protection from cytopathic effect is a common read-out in antiviral testing.

Another experiment deals with DENV2 replicon. The experiment is described as follows: DENV-2 Huh-7 Rep EC50 (replicon luminescence). A digest of the protocol: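 EC50 derived from luminescence dose-response, normalised to DMSO-only 0% inhibition wells, after 1.5 h with EnduRen substrate. Compounds were first exposed for 48 h at 37° C to DENV2 replicon Huh-7 cells (5,000/well).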
On the technique in general: In antiviral work, replicon cells carry a viral genome segment that copies itself.

Where [1] appears, read: human respiratory syncytial virus, HEp-2, 96 h.
[2] abbreviates: human respiratory syncytial virus, NHBE, 96 h.
The mark [3] stands for this setting: 96 h, Table 3; H1-HeLa cells, 96 h; read-out: HRV16 HeLa EC50.
The mark [4] stands for this setting: Dengue virus, DENV2, Huh-7, 48 h, read-out: DENV-2 REP Huh7 EC50.
Where [5] appears, read: Table 3; H1-HeLa cells, 96 h; read-out: HRV16 HeLa EC50.
The mark [6] stands for this setting: Table 3, Huh-7 DENV2 replicon cells, 48 hours, read-out: DENV-2 REP Huh7 EC50.
[7] abbreviates: Dengue virus, DENV2, Huh-7, 48 h, read-out: DENV-2 REP Huh7 EC50, Table 3, Huh-7 DENV2 replicon cells, 48 hours.

In the case of `COC(=O)[C@H](C)N[P@](=O)(OC[C@@]1(C#N)O[C@@H](c2ccc3c(N)ncnn23)[C@H](OC(C)=O)[C@@H]1OC(C)=O)Oc1ccccc1` (single isomer, unassigned) [Example 131], the EC50 was determined as 103 nM in the experiment with RSV strain A2 (setting [1]), 47 nM in the experiment with RSV A2 (setting [2]), 782 nM in the experiment with HRV16 (setting [3]) and 19200 nM in the experiment on DENV2 replicon (setting [4]).

As for `CC(C)C(=O)O[C@H]1[C@H](c2ccc3c(N)ncnn23)O[C@](C#N)(CO[P@@](=O)(N[C@@H](C)C(=O)O[C@H]2CC[C@H](C(F)(F)F)CC2)Oc2ccccc2)[C@H]1OC(=O)C(C)C` [Example 79, (2R,3S,4S,5S)-5-(4-Aminopyrrolo[2,1-f][1,2,4]triazin-7-yl)-2-cyano-2-((((S)-(((S)-1-oxo-1-((trans-4-(trifluoromethyl)cyclohexyl)oxy)propan-2-yl)amino) (phenoxy)phosphoryl)oxy)methyl)tetrahydrofuran-3,4-diyl bis(2-methylpropanoate)], the EC50 was found to be 105 nM in the experiment with RSV strain A2 (setting [1]), 19 nM in the experiment on RSV A2 (setting [2]), 217 nM in the experiment with HRV16 (setting [3]) and 12400 nM with DENV2 replicon (setting [4]).

As for `CC(=O)O[C@H]1[C@H](c2ccc3c(N)ncnn23)O[C@](C#N)(COP(=O)(N[C@@H](C)C(=O)OC2CCOCC2)Oc2ccccc2)[C@H]1OC(C)=O` (single isomer, unassigned) [Example 165], the half-maximal effective concentration (EC50) in the experiment with RSV strain A2 is 405 nM; in the experiment on RSV A2, 165 nM; in the experiment with HRV16 (setting [5]) it was 1910 nM; in the experiment on DENV2 replicon (setting [6]), above 99700 nM.

For the molecule `C[C@H](N[P@](=O)(OC[C@@]1(C#N)O[C@@H](c2ccc3c(N)ncnn23)C(OC(=O)c2ccccc2)[C@@H]1OC(=O)c1ccccc1)Oc1ccccc1)C(=O)OC1CCCCC1` (stereo in doubt) [Example 83, (2R,3S,4R,5S)-5-(4-aminopyrrolo[2,1-f][1,2,4]triazin-7-yl)-2-cyano-2-((((S)-(((S)-1-(cyclohexyloxy)-1-oxopropan-2-yl)amino)(phenoxy)phosphoryl)oxy)methyl) tetrahydrofuran-3,4-diyl dibenzoate], the EC50 with RSV strain A2 (setting [1]) is above 100000 nM; with RSV A2 (setting [2]), above 5000 nM; in the experiment with HRV16 (setting [3]), 17400 nM; in the experiment on DENV2 replicon (setting [4]), 5160 nM.

In the case of `CC(C)[C@@H](N)C(=O)O[C@H]1[C@H](c2ccc3c(N)ncnn23)O[C@](C#N)(CO[P@@](=O)(N[C@@H](C)C(=O)OC2CCCCC2)Oc2ccccc2)[C@H]1OC(=O)[C@H](N)C(C)C` [Example 153, (2R,3S,4S,5S)-5-(4-aminopyrrolo[2,1-f][1,2,4]triazin-7-yl)-2-cyano-2-((((S)-(((S)-1-(cyclohexyloxy)-1-oxopropan-2-yl)amino)(phenoxy)phosphoryl)oxy)methyl)tetrahydrofuran-3,4-diyl (2R,2′R)-bis(2-amino-3-methylbutanoate)], the EC50 with RSV strain A2 (setting [1]) was found to be 110 nM; in the experiment on RSV A2 (setting [2]), 283 nM; in the experiment on HRV16 (setting [3]) it was 470 nM; with DENV2 replicon (setting [4]), 6680 nM.

With `C[C@H](NP(=O)(OC[C@@]1(C#N)O[C@@H](c2ccc3c(N)ncnn23)[C@H](OC(=O)C(C)(C)C)[C@@H]1OC(=O)C(C)(C)C)Oc1ccccc1)C(=O)OC1CCOCC1` (single isomer, unassigned) [Example 173], the EC50 with RSV strain A2 stood at 256 nM; with RSV A2 it was 75 nM; in the experiment on HRV16 (setting [5]), 519 nM; with DENV2 replicon (setting [6]) it was 16100 nM.

Regarding `COC(=O)[C@H](C)NP(=O)(N[C@@H](C)C(=O)OC)OC[C@@]1(C#N)O[C@@H](c2ccc3c(N)ncnn23)[C@H](OC(=O)C(C)C)[C@@H]1OC(=O)C(C)C` [Example 149, ((2R,3S,4R,5S)-5-(4-aminopyrrolo[2,1-f][1,2,4]triazin-7-yl)-2-cyano-3,4-diisobutylatetetrahydrofuran-2-yl)methyl bis-methyl L-alaninate phosphate], the EC50 is 1150 nM with RSV strain A2 (setting [1]), 84 nM in the experiment on RSV A2 (setting [2]), 3190 nM with HRV16 (setting [3]) and above 35800 nM in the experiment on DENV2 replicon (setting [7]).

Take `CC(C)C(=O)O[C@H]1[C@H](c2ccc3c(N)ncnn23)O[C@](C#N)(COP(=O)(N[C@@H](C)C(=O)OCC2COC2)Oc2ccccc2)[C@H]1OC(=O)C(C)C` (stereo partly drawn) [Example 200, (2R,3S,4S,5S)-5-(4-aminopyrrolo[2,1-f][1,2,4]triazin-7-yl)-2-cyano-2-((((((S)-1-(oxetan-3-ylmethoxy)-1-oxopropan-2-yl)amino)(phenoxy)phosphoryl)oxy)methyl) tetrahydrofuran-3,4-diyl bis(2-methylpropanoate)]: the EC50 with RSV strain A2 (setting [1]) was found to be 58 nM; in the experiment with RSV A2 (setting [2]) it was 12 nM; in the experiment on HRV16 (setting [3]), 120 nM; in the experiment on DENV2 replicon (setting [4]), 2180 nM.

On to `CC(C)C(=O)OC1C(c2ccc3c(N)ncnn23)OC(C#N)(COP(=O)(NC(C)C(=O)OCC2CCC(N)CC2)Oc2ccccc2)C1OC(=O)C(C)C` (single isomer, unassigned) [Example 208], for which the EC50 in the experiment with RSV strain A2 was 2120 nM; in the experiment with RSV A2, 215 nM; in the experiment with HRV16 (setting [5]), 15200 nM; with DENV2 replicon (setting [6]) it was above 50000 nM.

Turning to `CCC(=O)O[C@H]1[C@H](c2ccc3c(N)ncnn23)O[C@](C#N)(CO[P@@](=O)(N[C@@H](C)C(=O)OCC(CC)CC)Oc2ccccc2)[C@H]1OC(=O)CC` [Example 180, (2R,3S,4S,5S)-5-(4-aminopyrrolo[2,1-f][1,2,4]triazin-7-yl)-2-cyano-2-((((S)-(((S)-1-(2-ethylbutoxy)-1-oxopropan-2-yl)amino)(phenoxy)phosphoryl)oxy)methyl) tetrahydrofuran-3,4-diyl dipropionate], the EC50 in the experiment with RSV strain A2 (setting [1]) came to 62 nM; with RSV A2 (setting [2]) it was 31 nM; in the experiment on HRV16 (setting [3]) it was 178 nM; in the experiment with DENV2 replicon (setting [4]), 8310 nM.

For the molecule `COC(=O)[C@H](C)N[P@@](=O)(OC[C@@]1(C#N)O[C@@H](c2ccc3c(N)ncnn23)[C@H](OC(=O)C(C)C)[C@@H]1OC(=O)C(C)C)Oc1ccccc1` (single isomer, unassigned) [Example 139], the EC50 turned out to be 39 nM in the experiment on RSV strain A2 (setting [1]), 8 nM with RSV A2 (setting [2]), 97 nM in the experiment with HRV16 (setting [3]) and 5240 nM in the experiment on DENV2 replicon (setting [4]).

Regarding `COC(=O)[C@H](C)NP(=O)(N[C@@H](C)C(=O)OC)OC[C@@]1(C#N)O[C@@H](c2ccc3c(NC(C)=O)ncnn23)[C@H](OC(C)=O)[C@@H]1OC(C)=O` [Example 128], the EC50 in the experiment on RSV strain A2 (setting [1]) was 18800 nM; with RSV A2 (setting [2]) it was above 4140 nM; in the experiment with HRV16 (setting [3]), above 50000 nM; in the experiment with DENV2 replicon (setting [7]) it was above 50000 nM.

As for `CCC(=O)O[C@H]1[C@H](c2ccc3c(N)ncnn23)O[C@](C#N)(COP(=O)(N[C@@H](C)C(=O)OC)N[C@@H](C)C(=O)OC)[C@H]1OC(=O)CC` [Example 199], the EC50 with RSV strain A2 (setting [1]) was 4110 nM; with RSV A2 (setting [2]), 235 nM; in the experiment with HRV16 (setting [3]) it was 19500 nM; with DENV2 replicon (setting [7]), above 50000 nM.

Regarding `CC(=O)O[C@H]1[C@H](c2ccc3c(N)ncnn23)O[C@](C#N)(CO[P@](=O)(N[C@@H](C)C(=O)OCC2CCC2)Oc2ccccc2)[C@H]1OC(C)=O` [Example 96], the EC50 in the experiment on RSV strain A2 is 63 nM; in the experiment on RSV A2, 20 nM; in the experiment on HRV16 (setting [5]), 417 nM; with DENV2 replicon (setting [6]), 16800 nM.

As to `CCC(=O)OC1C(c2ccc3c(N)ncnn23)OC(C#N)(COP(=O)(NC(C)C(=O)OCC2COC2)Oc2ccccc2)C1OC(=O)CC` (single isomer, unassigned) [Example 205], the concentration giving a half-maximal response (EC50) in the experiment with RSV strain A2 amounted to 164 nM; in the experiment with RSV A2, 21 nM; in the experiment with HRV16 (setting [5]) it was 286 nM; in the experiment on DENV2 replicon (setting [6]), 19000 nM.

Consider `CCC(=O)O[C@H]1[C@H](c2ccc3c(N)ncnn23)O[C@](C#N)(CO[P@@](=O)(N[C@@H](C)C(=O)OCC2CCN(CC(F)(F)F)CC2)Oc2ccccc2)[C@H]1OC(=O)CC` [Example 116], for which the EC50 in the experiment on RSV strain A2 was 273 nM; with RSV A2 it was 15 nM; in the experiment on HRV16 (setting [5]), 303 nM; in the experiment on DENV2 replicon (setting [6]), 19700 nM.

Turning to `CC(=O)O[C@H]1[C@H](c2ccc3c(N)ncnn23)O[C@](C#N)(COP(=O)(N[C@@H](C)C(=O)OC(C)C)N[C@@H](C)C(=O)OC(C)C)[C@H]1OC(C)=O` [Example 133, ((2R,3S,4R,5S)-5-(4-aminopyrrolo[2,1-f][1,2,4]triazin-7-yl)-2-cyano-3,4-diacetatetetrahydrofuran-2-yl)methyl bis-isopropyl L-alaninate phosphate], the EC50 in the experiment with RSV strain A2 (setting [1]) was 18100 nM; with RSV A2 (setting [2]), above 4070 nM; with HRV16 (setting [3]), above 48900 nM; with DENV2 replicon (setting [7]), above 50000 nM.

Broadly, the EC50 is the concentration giving half of the maximal effect.
